Like-named read-outs stand apart in the source and are kept apart here.
How the values were obtained:
[1] = test system: SW480; assay: cells; assay type: cell-based; conditions: Homo sapiens
[2] = test system: NCI-H716 cells; assay: cells; assay type: cell-based, Human; conditions: Homo sapiens, NCI-H716, read-out: GLP1 sec. EC50
[3] = test system: nuclear β-catenin in C2C12 cells; assay: cells; assay type: cell-based; conditions: Mus musculus
[4] = test system: INS-1E cells; assay: cells; assay type: cell-based, rat
[5] = test system: tonic K+ channel activity in INS-1E cells; assay: cells; assay type: cell-based, rat; conditions: for IC50: Rattus norvegicus, INS-1E, read-out: K+ channel assay IC50; for 0.1mMGluc_INS1E FluxOR IC50/EC50: assay number 10
[6] = test system: HCT116; assay: cells; assay type: cell-based; conditions: Homo sapiens
[7] = test system: HeLa cells; assay: cells; assay type: cell-based; conditions: for EC50: Homo sapiens, HeLa, read-out: CellCycle G2/M
[8] = test system: DLD-1; assay: cells; assay type: cell-based; conditions: Homo sapiens
[9] = test system: endothelial tube formation in co-cultures of ECFCs and ADSCs treated with VEGF; assay: cells; assay type: cell-based, human; conditions: Homo sapiens, read-out: Anti-Angio IC50
[10] = test system: HCT116 cells treated with a GSK3β inhibitor; assay: cells; assay type: cell-based; conditions: Homo sapiens
[11] = test system: INS-1E cells; assay type: cell-based, rat; conditions: 0.1 mM glucose; for 0.1mMGluc_INS1E SecretionMod Act IC50/EC50: assay number 9;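 for 5mMGluc INS1E SecretionMod IC50/EC50: secreted insulin quantified by homogeneous immunoassay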;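 for IC50/EC50, 5mMGluc INS1E SecretionMod (assay number 8): secreted insulin quantified by homogeneous immunoassay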

In the case of `CC(CC1c2ccccc2CCc2ccccc21)CN(C)C` (stereo not drawn) [butriptyline, reference compound], the IC50 ([1]; SW480, 72 h, read-out: SW480 viab. IC50) is reported as 7.8 µM, the IC50 ([1]; SW480, read-out: Basal_Viability ATP SW480) is reported as 7.84 µM and the EC50 [2] is reported as greater than 10 µM. The EC50 ([3]; C2C12, read-out: Wnt pot. EC50) was greater than 10 µM, the EC50 ([4]; Rattus norvegicus, INS-1E, read-out: Ins. sec. EC50) was 3.6 µM and the EC50 ([4]; Rattus norvegicus, INS-1E, read-out: Insulin Secretion) was 3.64 µM. The IC50 [5] was greater than 20 µM, the IC50 ([6]; HCT-116, 72 h, read-out: HCT-116 viab. IC50) was 6.2 µM and the IC50 ([6]; HCT-116, read-out: Basal_Viability ATP HCT116) was 6.21 µM. The EC50 [7] was greater than 10 µM, the IC50 ([8]; DLD-1, 72 h, read-out: DLD-1 viab. IC50) was 8.1 µM and the IC50 ([8]; DLD-1, read-out: Basal_Viability ATP DLD-1) was 8.1 µM. The IC50 [9] was greater than 10 µM and the IC50 ([10]; HCT-116, 72 h, read-out: HCT-116 (GSK3β) viab. IC50) was greater than 20 µM.
In the case of `CCN(CC)CCOc1ccccc1C(=O)CCc1ccccc1` [NCGC00160484-02], the “IC50/EC50, 5mMGluc_INS1E SecretionMod (assay number 8)” value (shortened to “IC50/EC50, 5mMGluc_INS1E SecretionMod”) ([4]; 5 mM glucose) is reported as 3.892 µM, the “IC50/EC50, 0.1mMGluc_INS1E FluxOR (assay number 10)” value (“IC50/EC50, 0.1mMGluc_INS1E FluxOR” for short) ([5]; 0.1 mM glucose) is reported as 6.739 µM and the “IC50/EC50, Hela CellCycMod PI 2N (assay number 14)” value ([7]; 2N) is reported as greater than 10 µM. The “IC50/EC50, Hela CellCycMod PI 4N (assay number 16)” value ([7]; 4N) was greater than 10 µM, the “IC50/EC50, Hela CellCycMod PI Cell Number (assay number 18)” value [7] was greater than 10 µM and the “IC50/EC50, Hela CellCycMod PI MI (assay number 17)” value ([7]; MI) was greater than 10 µM. The “IC50/EC50, Hela CellCycMod PI S Phase (assay number 15)” value [7] was greater than 10 µM and the “IC50/EC50, 0.1mMGluc_INS1E SecretionMod Act (assay number 9)” value (from here on “IC50/EC50 … (assay number 9)”) [11] was greater than 33.33 µM.
In the case of `CN(C)CCC=C1c2ccccc2CCc2ccccc21.Cl` [NCGC00015095-15], the “IC50/EC50, 5mMGluc_INS1E SecretionMod” value ([4]; 5 mM glucose) is reported as 2.999 µM, the “IC50/EC50, 0.1mMGluc_INS1E FluxOR” value ([5]; 0.1 mM glucose) is reported as 6.243 µM and the “IC50/EC50, Hela CellCycMod PI 2N (assay number 14)” value ([7]; 2N) is reported as greater than 10 µM. The “IC50/EC50, Hela CellCycMod PI 4N (assay number 16)” value ([7]; 4N) was greater than 10 µM, the “IC50/EC50, Hela CellCycMod PI Cell Number (assay number 18)” value [7] was greater than 10 µM and the “IC50/EC50, Hela CellCycMod PI MI (assay number 17)” value ([7]; MI) was greater than 10 µM. The “IC50/EC50, Hela CellCycMod PI S Phase (assay number 15)” value [7] was greater than 10 µM and the “IC50/EC50 … (assay number 9)” value [11] was greater than 33.33 µM.
With `CN1CCCN(C(c2ccccc2)c2ccc(Cl)cc2)CC1` (stereo not drawn) [NCGC00018271-07] the “5mMGluc_INS1E SecretionMod IC50/EC50” value ([4]; assay number 8; 5 mM glucose) was greater than 3.703 µM, the “0.1mMGluc_INS1E FluxOR IC50/EC50” value ([5]; 0.1 mM glucose) was 15.6503 µM and the “0.1mMGluc_INS1E SecretionMod Act IC50/EC50” value [11] was greater than 33.33 µM.
In the case of `CCN(CCCCOC(=O)c1ccc(OC)c(OC)c1)C(C)Cc1ccc(OC)cc1.Cl` (stereo not drawn) [NCGC00018277-06], the “5mMGluc_INS1E SecretionMod IC50/EC50” value ([4]; assay number 8; 5 mM glucose) is reported as 1.952 µM, the “0.1mMGluc_INS1E FluxOR IC50/EC50” value ([5]; 0.1 mM glucose) is reported as 1.737 µM and the “Hela CellCycMod PI 2N IC50/EC50” value ([7]; assay number 14, 2N) is reported as greater than 10 µM. For the same compound, the “Hela CellCycMod PI S Phase IC50/EC50” value ([7]; assay number 15, S phase) was greater than 10 µM, the “Hela CellCycMod PI 4N IC50/EC50” value ([7]; assay number 16, 4N) was greater than 10 µM and the “Hela CellCycMod PI MI IC50/EC50” value ([7]; assay number 17, MI) was greater than 10 µM. The “Hela CellCycMod PI Cell Number IC50/EC50” value ([7]; assay number 18, cell number) was greater than 10 µM and the “0.1mMGluc_INS1E SecretionMod Act IC50/EC50” value [11] was greater than 33.33 µM.
In the case of `CC1CC(=O)NN=C1c1ccc(NCC(C)(C)NCC(O)COc2cc(Cl)ccc2C#N)cc1` (stereo not drawn) [NCGC00249416-01], the “5mMGluc_INS1E SecretionMod IC50/EC50” value ([4]; assay number 8; 5 mM glucose) is reported as 15.1547 µM, the “0.1mMGluc_INS1E FluxOR IC50/EC50” value ([5]; 0.1 mM glucose) is reported as 84.8421 µM and the “0.1mMGluc_INS1E SecretionMod Act IC50/EC50” value [11] is reported as greater than 33.33 µM.
With `CC(C)C1CCC(C(=O)N[C@H](Cc2ccccc2)C(=O)O)CC1` (stereo partly drawn) [NCGC00178741-03] the “5mMGluc_INS1E SecretionMod IC50/EC50” value ([4]; assay number 8; 5 mM glucose) was 7.074 µM, the “0.1mMGluc_INS1E FluxOR IC50/EC50” value ([5]; 0.1 mM glucose) was 0.2515 µM and the “0.1mMGluc_INS1E SecretionMod Act IC50/EC50” value [11] was greater than 33.33 µM.
Compound `CCN(CC)CCOc1ccccc1C(=O)CCc1ccccc1` [etafenone, reference compound] has an IC50 ([1]; SW480, 72 h, Table 2, 72 h, Cell TiterGlo, non-adherent, 20 coded, read-out: SW480 viab. IC50) of 16.9 µM, an IC50 ([1]; SW480, basal, SW480, read-out: Basal_Viability ATP SW480) of 16.9 µM and an EC50 ([3]; C2C12, Table 2, C2C12, […], 20 / 20.1 coded, read-out: Wnt pot. EC50) greater than 10 µM. For the same compound, the EC50 ([4]; Rattus norvegicus, INS-1E; read-out: Ins. sec. EC50) was 3.9 µM, the EC50 ([4]; Rattus norvegicus, INS-1E; read-out: Insulin Secretion) was 3.89 µM and the IC50 ([5]; 0.1 mM glucose, thallium flux) was 6.7 µM. For the same compound, the IC50 ([6]; HCT-116, 72 h, read-out: HCT-116 viab. IC50, Table 2, basal, 72 h, Cell TiterGlo, non-adherent, 20 coded) was 11.2 µM, the IC50 ([6]; HCT-116, basal, HCT116, read-out: Basal_Viability ATP HCT116) was 11.2 µM and the “G2/M IC50 / EC50” value [7] was 20 (values shown as 20 indicate that the compound was tested in concentration-response and showed no response at the highest concentration tested (e.g. IC50 > 20 μM)). For the same compound, the EC50 ([7]; S2 Table, 20 = no response at highest concentration) was greater than 10 µM, the IC50 ([8]; DLD-1, 72 h, Table 2, 72 h, Cell TiterGlo, non-adherent, 20 coded, read-out: DLD-1 viab. IC50) was greater than 20 µM and the IC50 ([9]; Table 2, primary assay tube area, 20 = no response in concentration-response, 20.1 = inactive in single concentration testing) was greater than 10 µM. The IC50 ([10]; HCT-116, read-out: HCT-116 (GSK3β) viab. IC50, Table 2, GSK3β inhibitor LY2090314 20 nM, 72 h, Cell TiterGlo, 20 coded) was greater than 20 µM.
`O=c1[nH]c2ccccc2n1CCCN1CCC(n2c(=O)[nH]c3cc(Cl)ccc32)CC1` [NCGC00014670-17] was tested, and the “IC50/EC50, 5mMGluc_INS1E SecretionMod” value ([4]; 5 mM glucose) was 12.4283 µM, the “IC50/EC50, 0.1mMGluc_INS1E FluxOR” value ([5]; 0.1 mM glucose) was 36.5303 µM and the “IC50/EC50 … (assay number 9)” value [11] was greater than 33.33 µM.
In the case of `CN(C)CCN(Cc1ccc(Cl)cc1)c1ccccn1` [NCGC00016672-04], the “5mMGluc_INS1E SecretionMod IC50/EC50” value ([4]; assay number 8; 5 mM glucose) is reported as 6.1408 µM, the “0.1mMGluc_INS1E FluxOR IC50/EC50” value ([5]; 0.1 mM glucose) is reported as 4.782 µM and the “0.1mMGluc_INS1E SecretionMod Act IC50/EC50” value [11] is reported as 16.7904 µM.

— publication PMC4503722, “Novel Phenotypic Outcomes Identified for a Public Collection of Approved Drugs from a Publicly Accessible Panel of Assays” (PLoS ONE, 2015)
